{"source": "ChEMBL document CHEMBL4619760", "about": "“Anti-inflammatory Efficacy of Combined Natural Alkaloid Berberine and S1PR Modulator Fingolimod at Low Doses in Ulcerative Colitis Preclinical Models” (J Nat Prod, 2020)", "key": {"Mus musculus [1]": {"test_system": "Mus musculus", "test": "Anti-colitis activity against DSS-induced C57BL/6 mouse model of subchronic relapsing colitis assessed as reduction in disease activity index at 40 mg/kg, po administered once daily for 14 days starting from day 5 post DSS challenge and measured on day 19", "assay_type": "functional, organism-based"}, "Mus musculus [2]": {"test_system": "Mus musculus", "test": "Anti-colitis activity against DSS-induced C57BL/6 mouse model of chronic relapsing colitis assessed as reduction in disease activity index at 40 mg/kg, po administered once daily for 30 days starting from day 13 post DSS-challenge and measured on day 24", "assay_type": "functional, organism-based"}, "[3]": {"biological_target": "Signal transducer and activator of transcription 3 (Homo sapiens) (UniProt P40763)", "sequence (P40763 whole entry)": "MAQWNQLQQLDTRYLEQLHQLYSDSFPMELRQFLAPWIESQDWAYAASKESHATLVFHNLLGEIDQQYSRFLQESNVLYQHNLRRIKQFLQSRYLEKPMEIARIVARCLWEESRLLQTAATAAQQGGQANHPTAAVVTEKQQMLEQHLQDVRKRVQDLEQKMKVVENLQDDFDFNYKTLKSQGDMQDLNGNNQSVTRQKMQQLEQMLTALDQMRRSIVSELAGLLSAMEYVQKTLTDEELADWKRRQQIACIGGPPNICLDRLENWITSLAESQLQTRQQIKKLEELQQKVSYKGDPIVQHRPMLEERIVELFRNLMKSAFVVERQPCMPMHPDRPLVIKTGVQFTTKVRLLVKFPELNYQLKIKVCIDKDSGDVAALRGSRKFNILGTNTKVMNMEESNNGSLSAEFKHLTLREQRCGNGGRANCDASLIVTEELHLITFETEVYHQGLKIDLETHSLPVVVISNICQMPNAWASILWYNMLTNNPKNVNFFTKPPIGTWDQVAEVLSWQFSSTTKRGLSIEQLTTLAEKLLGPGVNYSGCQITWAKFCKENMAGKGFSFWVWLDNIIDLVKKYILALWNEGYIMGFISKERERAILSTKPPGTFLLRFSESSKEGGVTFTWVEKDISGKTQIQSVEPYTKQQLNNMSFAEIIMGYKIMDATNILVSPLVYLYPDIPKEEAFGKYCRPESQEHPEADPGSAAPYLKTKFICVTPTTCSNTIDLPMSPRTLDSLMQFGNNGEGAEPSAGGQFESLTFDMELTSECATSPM", "test": "Inhibition of STAT3 activation in human THP1 cells assessed as reduction in LPS-induced phosphorylated STAT3 expression at 0.5 uM cotreated with 0.5 uM berberine incubated for 1 hr followed by LPS challenge and measured after 4 to 6 hrs by Western blot analysis", "assay_type": "cell-based", "details": "THP-1"}, "Mus musculus [4]": {"test_system": "Mus musculus", "test": "Anti-colitis activity against DSS-induced C57BL/6 mouse model of chronic relapsing colitis assessed as reduction in stool bleeding at 40 mg/kg, po administered once daily for 30 days starting from day 13 post DSS-challenge measured on day 38", "assay_type": "functional, organism-based"}, "Mus musculus [5]": {"test_system": "Mus musculus", "test": "Antiinflammatory activity against DSS-induced C57BL/6 mouse model of subchronic relapsing colitis assessed as reduction in S1PR1 mRNA level at 40 mg/kg, po administered once daily for 14 days starting from day 5 post DSS-challenge by RT-qPCR analysis", "assay_type": "functional, organism-based"}, "Mus musculus [6]": {"test_system": "Mus musculus", "test": "Anti-colitis activity against DSS-induced C57BL/6 mouse model of subchronic relapsing colitis assessed as reduction in phosphorylated STAT3 level at 40 mg/kg, po administered once daily for 14 days starting from day 5 post DSS-challenge by Western blot analysis", "assay_type": "functional, organism-based"}, "Mus musculus [7]": {"test_system": "Mus musculus", "test": "Effect on total S1PR1 expression in DSS-induced C57BL/6 mouse model of subchronic relapsing colitis at 40 mg/kg, po administered once daily for 14 days starting from day 5 post DSS-challenge by Western blot analysis", "assay_type": "ADME, organism-based", "details": "in vivo, 336 h"}, "Mus musculus [8]": {"test_system": "Mus musculus", "test": "Anti-colitis activity against DSS-induced C57BL/6 mouse model of chronic relapsing colitis assessed as reduction in disease activity index at 40 mg/kg, po administered once daily for 30 days starting from day 13 post DSS-challenge and measured on day 43", "assay_type": "functional, organism-based"}, "[9]": {"test": "(§1) Toxicity in DSS-induced C57BL/6 mouse model of chronic relapsing colitis assessed as induction of abnormalities in liver at 40 mg/kg, po administered once daily for 30 days starting from day 13 post DSS-challenge by hematoxylin and eosin staining based light microscopic analysis", "assay_type": "organism-based", "details": "in vivo, 720 h"}, "Mus musculus [10]": {"test_system": "Mus musculus", "test": "Anti-colitis activity against DSS-induced C57BL/6 mouse model of chronic relapsing colitis assessed as reversal of DSS-induced colon shortening at 40 mg/kg, po administered once daily for 30 days starting from day 13 post DSS-challenge", "assay_type": "functional, organism-based"}, "Mus musculus [11]": {"test_system": "Mus musculus", "test": "Anti-colitis activity against DSS-induced C57BL/6 mouse model of subchronic relapsing colitis assessed as reduction in stool bleeding scores at 40 mg/kg, po administered once daily for 14 days starting from day 5 post DSS challenge and measured on day 19", "assay_type": "functional, organism-based"}, "[12]": {"test": "Toxicity in DSS-induced C57BL/6 mouse model of chronic relapsing colitis assessed as induction of abnormalities in brain at 40 mg/kg, po administered once daily for 30 days starting from day 13 post DSS-challenge by hematoxylin and eosin staining based light microscopic analysis", "assay_type": "organism-based", "details": "in vivo, 720 h"}, "Mus musculus [13]": {"test_system": "Mus musculus", "test": "Effect on total STAT3 expression in DSS-induced C57BL/6 mouse model of subchronic relapsing colitis at 40 mg/kg, po administered once daily for 14 days starting from day 5 post DSS-challenge by Western blot analysis", "assay_type": "ADME, organism-based", "details": "in vivo, 336 h"}, "Mus musculus [14]": {"test_system": "Mus musculus", "test": "Anti-colitis activity against DSS-induced C57BL/6 mouse model of chronic relapsing colitis assessed as reduction in stool consistency score at 40 mg/kg, po administered once daily for 30 days starting from day 13 post DSS-challenge measured on day 43", "assay_type": "functional, organism-based"}, "[15]": {"test": "Toxicity in DSS-induced C57BL/6 mouse model of chronic relapsing colitis assessed as induction of abnormalities in kidney at 40 mg/kg, po administered once daily for 30 days starting from day 13 post DSS-challenge by hematoxylin and eosin staining based light microscopic analysis", "assay_type": "organism-based", "details": "in vivo, 720 h"}, "Mus musculus [16]": {"test_system": "Mus musculus", "test": "as §1, with “Anti-colitis activity against” for “Toxicity in”, “reduction” for “induction of abnormalities”, “DSS-induced inflammatory cell infiltration” for “liver”", "assay_type": "functional, organism-based"}, "Mus musculus [17]": {"test_system": "Mus musculus", "test": "Anti-colitis activity against DSS-induced C57BL/6 mouse model of chronic relapsing colitis assessed as reduction in stool consistency score at 40 mg/kg, po administered once daily for 30 days starting from day 13 post DSS-challenge measured on day 24", "assay_type": "functional, organism-based"}, "Mus musculus [18]": {"test_system": "Mus musculus", "test": "Anti-colitis activity against DSS-induced C57BL/6 mouse model of subchronic relapsing colitis assessed as reduction in DSS-induced colon shortening at 40 mg/kg, po administered once daily for 14 days starting from day 5 post DSS-challenge", "assay_type": "functional, organism-based"}, "Mus musculus [19]": {"test_system": "Mus musculus", "test": "Anti-colitis activity against DSS-induced C57BL/6 mouse model of subchronic relapsing colitis assessed as reduction in spleen swelling at 40 mg/kg, po administered once daily for 14 days starting from day 5 post DSS-challenge", "assay_type": "functional, organism-based"}, "Mus musculus [20]": {"test_system": "Mus musculus", "test": "Anti-colitis activity against DSS-induced C57BL/6 mouse model of subchronic relapsing colitis assessed as reduction in DSS-induced colon swelling at 40 mg/kg, po administered once daily for 30 days starting from day 13 post DSS-challenge", "assay_type": "functional, organism-based"}, "Mus musculus [21]": {"test_system": "Mus musculus", "test": "as §1, with “Anti-colitis activity against” for “Toxicity in”, “reduction” for “induction of abnormalities”, “DSS-induced multiple erosive lesions in colon” for “liver”", "assay_type": "functional, organism-based"}, "Mus musculus [22]": {"test_system": "Mus musculus", "test": "Antiinflammatory activity against DSS-induced C57BL/6 mouse model of subchronic relapsing colitis assessed as reduction in IL6 mRNA level at 40 mg/kg, po administered once daily for 14 days starting from day 5 post DSS-challenge by RT-qPCR analysis", "assay_type": "functional, organism-based"}, "Mus musculus [23]": {"test_system": "Mus musculus", "test": "as §1, with “Anti-colitis activity against” for “Toxicity in”, “reduction in DSS-induced loss” for “induction”, “colon crypt and columnar epithelium” for “abnormalities in liver”", "assay_type": "functional, organism-based"}, "THP-1 [24]": {"test_system": "THP-1", "test": "Antiinflammatory activity in human THP1 cells assessed as reduction in LPS-induced TNFalpha mRNA level at 1 uM incubated for 1 hr followed by LPS challenge and measured after 4 to 6 hrs by q-PCR method", "assay_type": "functional, cell-based"}, "[25]": {"test": "Toxicity in DSS-induced C57BL/6 mouse model of chronic relapsing colitis assessed as induction of abnormalities in heart at 40 mg/kg, po administered once daily for 30 days starting from day 13 post DSS-challenge by hematoxylin and eosin staining based light microscopic analysis", "assay_type": "organism-based", "details": "in vivo, 720 h"}, "Mus musculus [26]": {"test_system": "Mus musculus", "test": "Antiinflammatory activity against DSS-induced C57BL/6 mouse model of subchronic relapsing colitis assessed as reduction in TNFalpha mRNA level at 40 mg/kg, po administered once daily for 14 days starting from day 5 post DSS-challenge by RT-qPCR analysis", "assay_type": "functional, organism-based"}, "Mus musculus [27]": {"test_system": "Mus musculus", "test": "Anti-colitis activity against DSS-induced C57BL/6 mouse model of subchronic relapsing colitis assessed as effect on body weight at 40 mg/kg, po administered once daily for 14 days starting from day 5 post DSS challenge and measured after day 12 to day 18", "assay_type": "functional, organism-based"}, "Mus musculus [28]": {"test_system": "Mus musculus", "test": "Anti-colitis activity against DSS-induced C57BL/6 mouse model of subchronic relapsing colitis assessed as reduction in colon swelling at 40 mg/kg, po administered once daily for 14 days starting from day 5 post DSS-challenge", "assay_type": "functional, organism-based"}, "[29]": {"test": "Toxicity in DSS-induced C57BL/6 mouse model of chronic relapsing colitis assessed as induction of abnormalities in lung at 40 mg/kg, po administered once daily for 30 days starting from day 13 post DSS-challenge by hematoxylin and eosin staining based light microscopic analysis", "assay_type": "organism-based", "details": "in vivo, 720 h"}, "[30]": {"biological_target": "Signal transducer and activator of transcription 3 (Homo sapiens) (UniProt P40763)", "test": "Inhibition of STAT3 activation in human THP1 cells assessed as reduction in LPS-induced phosphorylated STAT3 expression at 1 uM incubated for 1 hr followed by LPS challenge and measured after 4 to 6 hrs by Western blot analysis", "assay_type": "cell-based", "details": "THP-1"}, "Mus musculus [31]": {"test_system": "Mus musculus", "test": "Anti-colitis activity against DSS-induced C57BL/6 mouse model of chronic relapsing colitis assessed as reduction in stool bleeding at 40 mg/kg, po administered once daily for 30 days starting from day 13 post DSS-challenge measured on day 43", "assay_type": "functional, organism-based"}, "Mus musculus [32]": {"test_system": "Mus musculus", "test": "Antiinflammatory activity against DSS-induced C57BL/6 mouse model of subchronic relapsing colitis assessed as reduction in IL17 mRNA level at 40 mg/kg, po administered once daily for 14 days starting from day 5 post DSS-challenge by RT-qPCR analysis", "assay_type": "functional, organism-based"}, "Mus musculus [33]": {"test_system": "Mus musculus", "test": "Anti-colitis activity against DSS-induced C57BL/6 mouse model of subchronic relapsing colitis assessed as reduction in stool consistency scores at 40 mg/kg, po administered once daily for 14 days starting from day 5 post DSS challenge and measured on day 19", "assay_type": "functional, organism-based"}, "THP-1 [34]": {"test_system": "THP-1", "test": "Antiinflammatory activity in human THP1 cells assessed as reduction in LPS-induced IL6 mRNA level at 1 uM incubated for 1 hr followed by LPS challenge and measured after 4 to 6 hrs by q-PCR method", "assay_type": "functional, cell-based"}}, "note": "Calls of active or inactive are those of the source. The calls are words filed in the database; no cut-off is given here.", "data": [{"smiles": "COc1ccc2cc3[n+](cc2c1OC)CCc1cc2c(cc1-3)OCO2.[Cl-]", "note": "[BERBERINE CHLORIDE]", "values": [{"measurement": "Activity", "setting": "Mus musculus [1]", "result": "Active"}, {"measurement": "Activity", "setting": "Mus musculus [2]", "result": "Active"}, {"measurement": "inhibition", "setting": "[3]", "result": "Active"}, {"measurement": "Activity", "setting": "Mus musculus [4]", "result": "Active"}, {"measurement": "Activity", "setting": "Mus musculus [5]", "result": "inactive"}, {"measurement": "Activity", "setting": "Mus musculus [6]", "result": "Active"}, {"measurement": "Activity", "setting": "Mus musculus [7]", "result": "Non-Toxic"}, {"measurement": "Activity", "setting": "Mus musculus [8]", "result": "Active"}, {"measurement": "Activity", "setting": "[9]", "result": "Non-Toxic"}, {"measurement": "Activity", "setting": "Mus musculus [10]", "result": "Active"}, {"measurement": "Activity", "setting": "Mus musculus [11]", "result": "Active"}, {"measurement": "Activity", "setting": "[12]", "result": "Non-Toxic"}, {"measurement": "Activity", "setting": "Mus musculus [13]", "result": "Non-Toxic"}, {"measurement": "Activity", "setting": "Mus musculus [14]", "result": "Active"}, {"measurement": "Activity", "setting": "[15]", "result": "Non-Toxic"}, {"measurement": "Activity", "setting": "Mus musculus [16]", "result": "Active"}, {"measurement": "Activity", "setting": "Mus musculus [17]", "result": "Active"}, {"measurement": "Activity", "setting": "Mus musculus [18]", "result": "Active"}, {"measurement": "Activity", "setting": "Mus musculus [19]", "result": "inactive"}, {"measurement": "Activity", "setting": "Mus musculus [20]", "result": "inactive"}, {"measurement": "Activity", "setting": "Mus musculus [21]", "result": "Active"}, {"measurement": "Activity", "setting": "Mus musculus [22]", "result": "Active"}, {"measurement": "Activity", "setting": "Mus musculus [23]", "result": "Active"}, {"measurement": "Activity", "setting": "THP-1 [24]", "result": "Active"}, {"measurement": "Activity", "setting": "[25]", "result": "Non-Toxic"}, {"measurement": "Activity", "setting": "Mus musculus [26]", "result": "Active"}, {"measurement": "Activity", "setting": "Mus musculus [27]", "result": "inactive"}, {"measurement": "Activity", "setting": "Mus musculus [28]", "result": "inactive"}, {"measurement": "Activity", "setting": "[29]", "result": "Non-Toxic"}, {"measurement": "inhibition", "setting": "[30]", "result": "Active"}, {"measurement": "Activity", "setting": "Mus musculus [31]", "result": "Active"}, {"measurement": "Activity", "setting": "Mus musculus [32]", "result": "Active"}, {"measurement": "Activity", "setting": "Mus musculus [33]", "result": "Active"}, {"measurement": "Activity", "setting": "THP-1 [34]", "result": "Active"}]}]}
